For experiment [1], the system named is cultured human epidermal/dermal skin tissues (EpiDerm-FT). Briefly: Hyaluronic acid levels by HA ELISA in culture medium and tissue lysates of EpiDerm-FT. Format: cell-based. The settings on record: vs vehicle-treated tissues. The source says: (§1) The purpose of this study was to evaluate the hyaluronic acid (HA) expression change activity of RoC® HA Serum Capsules (i.e. Example 2.0), RoC® Retinol Serum Capsules (i.e. Example 1.0), commercially available HA Serum (1.5 wt. % HA) and commercially available Retinol Serum (0.3 wt. % retinol) compared to 0.15% Retinol-treated tissues in cultured human epidermal/dermal skin tissues (EpiDerm-FT™). HA levels from culture medium, tissue lysates, HA histology and gene expression related to dermal anti-aging effects were quantified using qPCR method after 24- and 72-hours incubation with test materials.

A further experiment deals with Fibronectin (FN1) gene. Description: Gene expression change by qPCR in EpiDerm-FT: FN1. The experiment is classed as cell-based, human. The conditions noted are these: vs vehicle-treated tissues, GAPDH housekeeping.
Excerpt: as §1
Background: In qPCR the cycle at which signal appears reflects the starting amount.

The test system of the next experiment is Elastin (ELN) gene. Briefly: Gene expression change by qPCR in EpiDerm-FT: ELN. The experiment is classed as cell-based, human. The conditions noted are these: vs vehicle-treated tissues, GAPDH housekeeping.
Excerpt: as §1

Experiment [2] concerns Collagen type-IV (COL4A1) gene. Briefly: Gene expression change by qPCR in EpiDerm-FT: COL4A1. Format: cell-based, human. The settings on record: vs vehicle-treated tissues, GAPDH housekeeping.
Excerpt: as §1

For experiment [3], the system named is Hyaluronic acid synthase-1 (HAS1) gene. Briefly: Gene expression change by qPCR in EpiDerm-FT: HAS1. The experiment is classed as cell-based, human. The conditions noted are these: vs vehicle-treated tissues, GAPDH housekeeping.
Excerpt: as §1

Experiment [4] deals with cultured human epidermal/dermal skin tissues (EpiDerm-FT). Description: Alcian Blue histology of dermal layer, image analysis, EpiDerm-FT. The conditions noted are these: vs vehicle-only treated tissues. Format: cell-based.
Excerpt: as §1
After incubations, tissues were fixed and subjected to the normal steps of tissue preparation for histological analysis: dehydration, paraffin embedding, sectioning and staining with Alcian Blue. Histological activity was analyzed using image analysis including blue-color deconvolution and luminosity per section area in dermal layer. The percent change effect of each treatment was calculated comparing the vehicle-only treated tissues group.

Experiment [5] relates to Hyaluronic acid synthase-2 (HAS2) gene. Briefly: Gene expression change by qPCR in EpiDerm-FT: HAS2. Format: cell-based, human. The conditions noted are these: vs vehicle-treated tissues, GAPDH housekeeping.
Excerpt: as §1

Experiment [6] deals with Collagen type-III (COL3A1) gene. Description: Gene expression change by qPCR in EpiDerm-FT: COL3A1. Format: cell-based, human. The conditions noted are these: vs vehicle-treated tissues, GAPDH housekeeping.
Excerpt: as §1

The test system of experiment [7] is Collagen type-I (COL1A1) gene. Briefly: Gene expression change by qPCR in EpiDerm-FT: COL1A1. Format: cell-based, human. The settings on record: vs vehicle-treated tissues, GAPDH housekeeping.
Excerpt: as §1

[8] abbreviates: 24 hr, n = 3, listed as 0.15% Retinol formulated in DMSO.

This is an account of results in patent US20230099811A1, “COMPOSITION OF HYALURONIC ACID AND USE ALONE AND IN COMBINATION WITH RETINOIDS TO IMPROVE SKIN” (RoC OPCO LLC, priority 2021, published 2023).

For the compound `CC1=C(/C=C/C(C)=C/C=C/C(C)=C/CO)C(C)(C)CCC1` [0.15% Retinol in DMSO, Retinol], the “Hyaluronic Acid (HA) levels change, Culture medium” value in experiment [1] (24 hr, n = 3) is reported as “+34%”; in experiment [1] (setting [8]) it was 34%; in experiment [1] (72 hr, n = 3), “+25%”. Besides, the “Hyaluronic Acid (HA) levels change, Tissue lysates” value in experiment [1] (24 hr, n = 3) is reported as “+52%”; in experiment [1] (setting [8]) it was 52%; in experiment [1] (72 hr, n = 3) it was “+49%”. Also, the “Gene Expression change, FN1” value is on record as −16% in the experiment with Fibronectin (FN1) gene (24 hr); “+45%” in the experiment on Fibronectin (FN1) gene (72 hr); 45% in the experiment with Fibronectin (FN1) gene (72 hr, listed as 0.15% Retinol formulated in DMSO). The “Gene Expression change, ELN” value with Elastin (ELN) gene (24 hr) is listed as −21%; in the experiment on Elastin (ELN) gene (72 hr), “+25%”. Also, the “Gene Expression change, COL4A1” value is reported as −30% in [2] (24 hr) and “+9%” in [2] (72 hr). For the same compound, the “Gene Expression change, HAS1” value in experiment [3] (24 hr) is −52%; in [3] (72 hr) it was −29%. The entries for the “Histology, Alcian Blue in Dermis staining change” value in [4] (24 hr) and in experiment [4] (72 hr) were “+81%” and −9%, respectively. The “Gene Expression change, HAS2” value in [5] (24 hr) is reported as −11%; in [5] (72 hr), −18%. Further, the “Gene Expression change, COL3A1” value is recorded as −22% in [6] (24 hr) and “+8%” in [6] (72 hr). In addition, the “Gene Expression change, COL1A1” value in [7] (24 hr) is listed as −22%; in [7] (72 hr), “+18%”.
